Measurements as given in patent US10073083B2, “Prophylactic and therapeutic agents for FGFR3 diseases and screening method for the same” (KYOTO UNIVERSITY, priority 2013, dated 2018).
Ends that are not written are not given here. Peptide text beside a SMILES is read from it. * marks the point of attachment. Cbz = O=C(OCc1ccccc1)*

Assays:
TD-iPSCs [1] = test: Chondrogenic differentiation of TD-iPSCs, cartilaginous extracellular matrix by safranin O staining; assay type: cell-based, human; details: day 42; for chondrogenic differentiation of TD-iPSCs (safranin O): TD714-3, CNP 100 nM, NF449 25 μM, FGFR inhibitor 1 μM, IGF1R inhibitor 1 nM; for chondrogenic differentiation / cartilage formation of TD-iPSCs (safranin O): statin 1 μM in cartilage differentiation medium
Procedure: (§1) The iPS cell lines were transferred to Matrigel (Invitrogen)-coated dishes, then Essential 8 medium (Life Technologies) supplemented with 50 units/ml penicillin and 50 μg/ml streptomycin was added, and the cell lines were cultured for undifferentiated maintenance under the feeder-free conditions. The iPS cell lines formed colonies that consisted of 1 to 2×10^5 cells 10 to 15 days after seeding, and the medium was changed to mesodermal differentiation medium (DMEM/F12 supplemented with 10 ng/ml Wnt3A (R&D), 10 ng/ml activin A (R&D), 1% insulin-transferrin-sodium selenite (Invitrogen), 1% fetal calf serum, 50 units/ml penicillin and 50 μg/ml streptomycin) (day zero of differentiation). Three days after (day 3 of differentiation), the medium was changed to cartilage differentiation medium (DMEM/F12 supplemented with 50 μg/ml ascorbic acid, 10 ng/ml BMP2 (Osteopharma), 10 ng/ml TGFβ (PeproTech), 10 ng/ml GDF5, 1% insulin-transferrin-sodium selenite, 1% FBS, 50 units/ml penicillin and 50 μg/ml streptomycin). Eleven days after (day 14 of differentiation), the cells were physically separated from the dishes, and transferred to a suspension culture in the same medium. Fourteen days after transfer (day 28 of differentiation) and 28 days after transfer (day 42 of differentiation), the cells formed particles and the particles were harvested for analyses. The culture medium was changed every 2 to 7 days during differentiation.
FGFR3 neutralizing antibody was added to the medium during the chondrogenic differentiation of TD-iPSCs to inhibit FGFR3 activity, and chondrocyte formation was assessed. The FGFR3 neutralizing antibody (Santa Cruz (sc-13121)) was added as 1 μl of an antibody solution (200 ng/ml) in 1 ml of cartilage differentiation medium. As a control, IgG (Cell Signaling, #27295) was used. The chondrogenic differentiation was performed in the same manner as in Example 2, and the cartilaginous particles were assessed on days 28 and 42 of differentiation.
(§2) Several drugs that had previously been reported to affect FGFR3 signaling and/or chondrocyte differentiation (CNP, NF449, a FGFR inhibitor, and an IGF1R inhibitor) were selected, and their ability to rescue TD-iPSCs from failure of chondrogenic differentiation was investigated. The stock CNP (Sigma, N8768), NF449 (Abcam, ab120415), a FGFR inhibitor (PD 173047, Cayman) and an IGF1R inhibitor (IGF-1R inhibitor, PPP. Calbiochem, 407247) solutions were prepared at a concentration of 100 μM, 50 mM, 1 mM, 1 μM, respectively. The stock solutions were added to cartilage differentiation medium at the final concentrations of CNP, NF449, the FGFR inhibitor and the IGF1R inhibitor of 100 nM, 25 μM 1 μM, and 1 nM, respectively (day 3 of differentiation). TD-iPSCs were chondrogenically differentiated in the same manner as in Example 2, and the cartilaginous particles were assessed on days 28 and 42 of differentiation. As a control, an equal volume of water or DMSO was added to the medium. mRNA expression analysis was performed in the same manner as in Example 1.
To investigate whether lovastatin rescues TD-iPSCs from failure of chondrogenic differentiation, evaluation was performed in the same manner as in Example 4. A stock lovastatin (TCI, L0214) solution was prepared by dissolving it in DMSO at a concentration of 10 mM, and the solution was added to cartilage differentiation medium at a final concentration of 1 μM.

TD-iPSCs [2] = test: Real-time RT-PCR expression analysis of chondrocyte and fibroblast marker genes in chondrogenically differentiated TD-iPSCs; assay type: cell-based, human; details: TD714-3; CNP 100 nM, IGF1R inhibitor 1 nM; day 28
Procedure: mRNAs were isolated from the cell lines using RNeasy Mini Kit (Qiagen). A total of 500 ng of the total RNA was used as a template for cDNA synthesis by reverse transcription using ReverTra Ace system (TOYOBO). Standard curves for quantitative PCR (real-time PCR) were established and used for analyses. Real-time PCR analysis was performed in Step One system (ABI) using KAPA SYBR FAST qPCR kit Master Mix ABI Prism (KAPA BIOSYSTEMS).
as §1, §2

FGFR3 = test: Western blotting of FGFR3 in primary chondrocytes; assay type: cell-based, mouse
Procedure: Cell lysates were separated by SDS-PAGE. The separated proteins were immunostained with anti-FGFR3 antibody (Cell Signaling, #4574), anti-phosphorylated MAPK antibody (Cell Signaling, #9109) or anti-β-actin antibody (Cell Signaling, #49776).
The investigation of the effects of the inhibitors was performed as follows. A total of 2.5×10^5 primary chondrocytes were plated in each well of a six-well plate, and were cultured in the presence or absence of 1 μM lovastatin for 2 days. Then, the culture was supplemented with […] MG132, 100 nM Baf A1 or vehicle. Two hours later, the culture was further supplemented with 50 ng/ml FGF9 (PeproTech) and incubated at 4° C. for 2 hours. Then cells were collected and subjected to analysis by Western blotting.

[3] = system: TD-iPSC-derived cartilaginous particles; test: Incorporation of BrdU by TD-iPSC-derived cartilaginous particles; assay type: cell-based, human; details: presence vs absence of statin, 1 μM; day 28
FGFR3^Ach mice = test: Bone growth of ACH model mice treated with statins, X-ray imaging; assay type: in vivo, mouse; details: day 3 to day 14, 15 days old
Procedure: The FGFR3^Ach mice were crossed with wild-type mice (C57BL/6 background). A rosuvastatin solution at a dose of 1.0 mg/kg was intraperitoneally administered to the crossed mice 6 times per week from 3 days after birth until day 14. The mice were euthanized on day 15, and the bodies and the bone formation were examined by X-ray imaging (Faxitron DX-50). Genomic DNA was extracted from the toes of each mouse and subjected to genotype analysis. Also, a lovastatin solution at a dose of 0.4 mg/kg was intraperitoneally administered to the crossed mice 6 times per week from day 3 after birth until day 28, and the mice were euthanized on day 29 for examination of the bodies and the bone formation in the same manner as above.

[4] = rosuvastatin 1.0 mg/kg intraperitoneally 6 times per week

## COc1cc([C@@H]2c3cc4c(cc3[C@H](O)[C@H]3COC(=O)[C@@H]23)OCO4)cc(OC)c1OC [IGF1R inhibitor]
TD-iPSCs [1]
  chondrogenic differentiation of TD-iPSCs (safranin O): rescued TD-iPSCs from failure of chondrogenic differentiation
TD-iPSCs [2]
  expression of chondrocyte marker genes (SOX9, COL2, AGGRECAN): increased the expression of chondrocyte marker genes
  expression of fibroblast marker genes (COL1A1, COL1A2): decreased the expression of fibroblast marker genes

## c-type natriuretic peptide (GLSKGCFGLKLDRIGSMSGLGC; ends and bridges not checked; cysteine pairing not given here; UniProt P23582 105-126, looked up) [CNP, c-type natriuretic peptide (Sigma, N8768)]
TD-iPSCs [1]
  chondrogenic differentiation of TD-iPSCs (safranin O): rescued TD-iPSCs from failure of chondrogenic differentiation
TD-iPSCs [2]
  expression of chondrocyte marker genes (SOX9, COL2, AGGRECAN): increased the expression of chondrocyte marker genes
  expression of fibroblast marker genes (COL1A1, COL1A2): decreased the expression of fibroblast marker genes

## CO/C1=C\C(C)=C\[C@@H](C)[C@@H](O)[C@@H](C)C/C(C)=C/C=C/[C@H](OC)[C@@H]([C@@H](C)[C@@H](O)[C@H](C)[C@@]2(O)C[C@@H](O)[C@H](C)[C@@H](C(C)C)O2)OC1=O [Bafilomycin A1]
FGFR3; FGFR3^Ach chondrocytes in the presence of 1 μM lovastatin, 100 nM Baf A1
  expression of FGFR3: slightly increased

## CC(C)c1c(C(=O)Nc2ccccc2)c(-c2ccccc2)c(-c2ccc(F)cc2)n1CC[C@@H](O)C[C@@H](O)CC(=O)O [atorvastatin]
TD-iPSCs [1]
  chondrogenic differentiation / cartilage formation of TD-iPSCs (safranin O): rescued abnormal cartilage formation in the TD-iPSC-derived chondrocytes

## CC[C@H](C)C(=O)O[C@H]1CCC=C2C=C[C@H](C)[C@H](CC[C@@H]3C[C@@H](O)CC(=O)O3)[C@H]21 [mevastatin]
TD-iPSCs [1]
  chondrogenic differentiation / cartilage formation of TD-iPSCs (safranin O): rescued abnormal cartilage formation in the TD-iPSC-derived chondrocytes

## CCN(CC)CCCCNc1ncc2cc(-c3cc(OC)cc(OC)c3)c(NC(=O)NC(C)(C)C)nc2n1 [FGFR inhibitor, PD 173047]
TD-iPSCs [1]
  chondrogenic differentiation of TD-iPSCs (safranin O): had no effect on the chondrogenic differentiation of TD-iPSCs

## CC(C)C[C@@H](C=O)NC(=O)[C@H](CC(C)C)NC(=O)[C@H](CC(C)C)NC(=O)OCc1ccccc1 [MG132] (Cbz-Leu-Leu-Leu-aldehyde)
FGFR3; FGFR3^Ach chondrocytes cultured in the presence of 1 μM lovastatin, 10 mM MG132
  amount of FGFR3: increased the amount of FGFR3

## CC(C)c1nc(N(C)S(C)(=O)=O)nc(-c2ccc(F)cc2)c1/C=C/[C@@H](O)C[C@@H](O)CC(=O)O [rosuvastatin]
TD-iPSCs [1]
  chondrogenic differentiation / cartilage formation of TD-iPSCs (safranin O): rescued abnormal cartilage formation in the TD-iPSC-derived chondrocytes
[3]
  number of BrdU-positive cells: significantly increased the number of BrdU-positive cells
FGFR3^Ach mice; [4]
  anteroposterior lengths of the skulls (Cranial A-P): increased
  lengths of the femurs (Femur): increased
  lengths of the tibiae (Tibia): increased
  lengths of the ulnas (Ulna): increased
FGFR3^Ach mice; rosuvastatin 1.0 mg/kg intraperitoneally, t-test
  differences in the lengths vs wild-type mice receiving vehicle: no significant differences

## O=C(Nc1cc(C(=O)Nc2ccc(S(=O)(=O)O)cc2S(=O)(=O)O)cc(C(=O)Nc2ccc(S(=O)(=O)O)cc2S(=O)(=O)O)c1)Nc1cc(C(=O)Nc2ccc(S(=O)(=O)O)cc2S(=O)(=O)O)cc(C(=O)Nc2ccc(S(=O)(=O)O)cc2S(=O)(=O)O)c1 [NF449]
TD-iPSCs [1]
  chondrogenic differentiation of TD-iPSCs (safranin O): had no effect on the chondrogenic differentiation of TD-iPSCs
